Data on 23 compounds can be found in patent US7169785B2, “Methods and compositions of novel triazine compounds” (Reddy US Therapeutics, Inc., priority 2001, dated 2007).

Molecules are shown by their SMILES. Read-outs that look alike come from different tables or passages of the source. A value given as a limit tells only on which side of the number the result lay.

As usually defined, the inhibition is the change of the read-out against control, counted positive when it falls. Broadly, the melting point is the temperature, or range, at which the solid turns liquid.

Data set [1] deals with IL-6. Description: TNF-α-induced IL-6 production determined by IL-6 ELISA in HAEC. In kind it is cell-based, human. The conditions noted are these: HAEC; for Inhibition of TNF-induced IL6 production: class of % of control IL6 production.
For a further data set, the system named is heparanase. Description: Induction and measurement of endothelial heparanase protein (TNF-induced heparanase secretion). Conditions: for inhibition at 10 µM / inhibition at 5 µM: Homo sapiens; for Relative Activity: inhibition of TNF-induced heparanase secretion, scale at 5 uM compound concentration. The class given is cell-based, human. The procedure: Experiments were carried out on human microvascular endothelial cells (HMVEC) grown in 48-well plates (˜90% confluency). To induce heparanase activity, culture media was replaced with 200 μl Dulbecco's Modified Eagle's medium (DMEM) complemented with 1% bovine serum albumin (BSA) and with or without stimulants (5 ng/ml TGF-alpha, 1 ng/ml IL 1alpha, 200 ng/ml VEGF or other stimulants, cytokines, or inducers as required). The secreted proteins were analyzed by SDS/PAGE and heparanase protein was detected by immunoblotting using polyclonal anti-human heparanase antibody. The changes of heparanase expression determined by densitometric analysis. The induction and measurement of endothelial heparanase protein reported in the Tables herein were carried out according to this Example.

Data set [2] concerns IL-6. Description: AGE (G-HSA)-induced inflammatory response determined by IL-6 ELISA in HAEC. The class given is cell-based, human. Conditions: for activity at 10 µM: 24 h, IL6, read-out: % IL6 production compare to AGE stimulation of IL6 (100%); for IC50: IL6, unit inferred, read-out: IC50 (AGE stimulation of IL6). The method in brief:
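Human aortic endothelial cells grown to ≥90% confluence, then treated with compounds and stimuli in serum-free medium with 0.2% albumin. Secreted IL-6 in collected media measured by sandwich ELISA (2 ug/ml capture, 200 ng/ml biotinylated detection antibody, streptavidin-HRP), read at 450 nm.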
For orientation: An ELISA detects its analyte on a solid surface through an enzyme-linked reagent.

The subject of data set [3] is Human aortic smooth muscle cells. Description: Smooth muscle cell proliferation assay (anti-proliferation assay, perlecan). The class given is cell-based. The conditions noted are these: Homo sapiens, anti-proliferation assay (perlecan).
Method: Human aortic smooth muscle cells (Clonetics) were used. Cells were grown in basal medium containing 5% fetal bovine serum supplemented with growth factors, basic fibroblast growth factor, epidermal growth factor and insulin. […] The cells were then serum starved for 24 h to induce quiescence. Fresh growth medium containing no compound or 10 μM compound was then added and further incubated for 24 h. Cell number was determined by using a cell proliferation assay kit (Celltiter96 AQueous from Promega).
Where [4] appears, read: Homo sapiens, 24 h, Compds tested @ 10 uM, IL6, read-out: % IL6 production compare to TNF stimulation of IL6 (100%).
The mark [5] stands for this setting: Homo sapiens, Compds tested @ 10 uM.

With `COc1ccc(Nc2nc(NC3CCCCCC3)nc(N3CCN(CC(=O)N4CCCC4)CC3)n2)cc1F` [Compound 94, N^2-cycloheptyl-N^4-(3-fluoro-4-methoxyphenyl)-6-{4-[2-oxo-(1-pyrrolidinyl)ethyl]-1-piperazinyl}-1,3,5-triazine-2,4-diamine], the activity at 10 µM in the data set with IL-6 [1] (setting [4]) was 32%; in the data set on IL-6 [2] (setting [5]), 10%. The inhibition at 10 µM in the data set on heparanase (@ 10 uM) lay in the range of 40 to 60%. Also, the “Relative Activity” value in the data set with heparanase was “+ (0–30% inhibition)”. Also, the IC50 in the data set with IL-6 [2] (Homo sapiens) was determined as 5.8 µM.
`COc1ccc(Nc2nc(Nc3ccc(OC)c(Cl)c3)nc(OCC3CCCCC3)n2)cc1Cl` [Compound 118, N,N′-Bis-(3-chloro-4-methoxy-phenyl)-6-cyclohexylmethoxy-1,3,5-triazine-2,4-diamine] showed a melting point of 188 °C.
As to `CCN1CCCC1CNc1nc(Nc2ccccc2C)nc(NC2CCCCCC2)n1` (stereo not shown) [Compound 35, N^2-cycloheptyl-N^4-[(1-ethyl-2-pyrrolidinyl)methyl]-N^6-(2-methylphenyl)-1,3,5-triazine-2,4,6-triamine], the activity at 10 µM in the data set on IL-6 [1] (setting [4]) was 34%; in the data set on IL-6 [2] (setting [5]), 4%. Further, testing at 5 µM in the data set on heparanase gave an inhibition of 53%. In addition, in the data set with heparanase, the “Relative Activity” value is on record as “++ (30–40% inhibition)”.
Take `COc1ccc(Nc2nc(Cl)nc(OCC3CCCCC3)n2)cc1F` [Compound 114, (4-Chloro-6-cyclohexylmethoxy-[1,3,5]triazin-2-yl)-(3-fluoro-4-methoxy-phenyl)-amine]: the melting point turned out to be 98 °C.
Regarding `COc1ccc(Nc2nc(NC3CCCCCC3)nc(N3CCSCC3)n2)cc1Cl`, the melting point lay in the range of 78 to 80 °C.
Turning to `COc1ccc(Nc2nc(NC(C)C)nc(N(C)C3CCNCC3)n2)cc1Cl` [Compound 107, N^2-(3-chloro-4-methoxy-phenyl)-N^4-isopropyl-N^6-methyl-N^6-piperidin-4-yl-1,3,5-triazine-2,4,6-triamine], the melting point was 129 °C. Moreover, in the data set on IL-6 [1], the “Inhibition of TNF-induced IL6 production” value is “++ (between about 50 and about 75% of control IL6 production)”. The activity at 5 µM with IL-6 [1] (Homo sapiens, 24 h, read-out: % IL6 production compare to TNF stimulation of IL6 (100%), @ 5 uM, IL6) was 60%.
On to `CCN1CCCC1CNc1nc(Nc2ccc(OC)c(F)c2)nc(N2CCCCCC2)n1` (stereo not shown) [Compound 58, N^2-[(1-ethyl-2-pyrrolidinyl)methyl]-N^4-(3-fluoro-4-methoxyphenyl)-N^6-hexahydro-1H-azepin-1-yl-1,3,5-triazine-2,4-diamine], for which the activity at 10 µM is 1% with IL-6 [1] (setting [4]) and 30% with IL-6 [2] (setting [5]). For the same compound, the inhibition at 10 µM in the data set on heparanase (@ 10 uM) lay in the range of 40 to 60%. The “Relative Activity” value with heparanase is recorded as “+ (0–30% inhibition)”.
As to `COc1ccc(Nc2nc(Cl)nc(OCC3CCCCC3)n2)cc1Cl` [Compound 117, (4-Chloro-6-cyclohexylmethoxy-[1,3,5]triazin-2-yl)-(3-chloro-4-methoxy-phenyl)-amine], the melting point stood at 114 °C.
The same measure, in the same setting: under `COc1ccc(Nc2nc(NC3CCCCCC3)nc(Oc3ccccc3F)n2)cc1Cl` [Compound E28, N^2-(3-chloro-4-methoxyphenyl)-N^4-cycloheptyl-6-(2-fluorophenoxy)-1,3,5-triazine-4,2-diamine] stands 98 to 100 °C.
For `CCNc1nc(Nc2ccc(OC)c(F)c2)nc(NC2CCCCCC2)n1` [Compound 76, N^2-cycloheptyl-N^4-ethyl-N^6-(3-fluoro-4-methoxyphenyl)-1,3,5-triazine-2,4,6-triamine], in the data set on IL-6 [1] (setting [4]), the activity at 10 µM stood at 18%. In addition, in the data set on heparanase, the inhibition at 5 µM was determined as 50% and the “Relative Activity” value is “++ (30–40% inhibition)”.
Take `COc1ccc(Nc2nc(NCCCCCO)nc(N(C)C3CCNCC3)n2)cc1Cl` [Compound 109, 5-[4-(3-chloro-4-methoxy-phenylamino)-6-(methyl-piperidin-4-yl-amino)-1,3,5-triazin-2-ylamino]-pentan-1-ol]: the melting point is 101 °C. For the same compound, in the data set with IL-6 [1], the “Inhibition of TNF-induced IL6 production” value was “+++ (between about 25 and about 50% of control IL6 production)”. In addition, in the data set on IL-6 [1] (Homo sapiens, 24 h, read-out: % IL6 production compare to TNF stimulation of IL6 (100%), Compds tested @ 10 uM, IL6), the activity at 10 µM was determined as 40%.
`CCN1CCCC1CNc1nc(Nc2ccc(OC)c(F)c2)nc(OCC2CCCCC2)n1` (stereo not shown) [Compound 116, 6-Cyclohexylmethoxy-N-(1-ethyl-pyrrolidin-2-ylmethyl)-N′-(3-fluoro-4-methoxy-phenyl)-[1,3,5]triazine-2,4-diamine] came in with a melting point of 59 °C.
For `CCN1CCCC1CNc1nc(Nc2ccc(OC)c(F)c2)nc(NC(C)(C)C)n1` (stereo not shown) [Compound 52, N^2-(tert-butyl)-N^4-[(1-ethyl-2-pyrrolidinyl)methyl]-N^6-(3-fluoro-4-methoxyphenyl)-1,3,5-triazine-2,4,6-triamine], the activity at 10 µM with IL-6 [1] (setting [4]) amounted to 1%; with IL-6 [2] (setting [5]) it was 35%. The compound further showed an inhibition at 10 µM in the data set on heparanase (@ 10 uM) of 40 to 60%. Moreover, the “Relative Activity” value in the data set on heparanase is listed as “+ (0–30% inhibition)”.
In the data set with heparanase (@ 10 uM), `COc1ccc(Nc2nc(NC3CCCCCC3)nc(N3CCN(C)CC3)n2)cc1F` [Compound 87, N^2-cycloheptyl-N^4-(3-fluoro-4-methoxyphenyl)-6-(4-methyl-1-piperazinyl)-1,3,5-triazine-2,4-diamine] came in with an inhibition at 10 µM of 40 to 60%. Further, the “Relative Activity” value with heparanase is “+ (0–30% inhibition)”. Also, the activity at 10 µM in the data set with IL-6 [2] (setting [5]) is 5%.
On to `COc1ccc(Nc2nc(Cl)nc(NCC3CCCCC3)n2)cc1F` [Compound 125, 6-Chloro-N-cyclohexylmethyl-N′-(3-fluoro-4-methoxy-phenyl)-[1,3,5]triazine-2,4-diamine], for which the melting point is 156 °C. In addition, in data set [3] (read-out: Activity (note 1)), the IC50 was greater than 7 µM. Also, the IC50 in data set [3] (read-out: Avg IC-50) worked out at 10 µM.
For the compound `COc1ccc(Nc2nc(Nc3ccc(OC)c(F)c3)nc(OCC3CCCCC3)n2)cc1F` [Compound 115, 6-Cyclohexylmethoxy-N,N′-bis-(3-fluoro-4-methoxy-phenyl)-1,3,5-triazine-2,4-diamine], the melting point is 181 °C.
In turn, `COc1ccc(Nc2nc(NC3CCCCCC3)nc(N(C)C3CCNCC3)n2)cc1Cl` [Compound 146, N^2-(3-chloro-4-methoxy-phenyl)-N^4-cycloheptyl-N^6-methyl-N^6-piperidin-4-yl-1,3,5-triazine-2,4,6-triamine] gave a melting point of 114 to 116 °C. Moreover, the IC50 in data set [3] (read-out: Activity (note 1)) is less than 3 µM. Also, the IC50 in data set [3] (read-out: Avg IC-50) was roughly 2.2 µM.
As for `COc1ccc(Nc2nc(NC3CCCCCC3)nc(N3CCCC3)n2)cc1F` [Compound 82, N^2-cycloheptyl-N^4-(3-fluoro-4-methoxyphenyl)-6-(1-pyrrolidinyl)-1,3,5-triazine-2,4-diamine], the activity at 10 µM in the data set on IL-6 [1] (setting [4]) amounted to 34%. Also, in the data set with heparanase, at 5 µM the inhibition was 73% and the “Relative Activity” value is recorded as “+++ (70–100% inhibition)”.
For `COc1ccc(Nc2nc(NC3CCCCCC3)nc(OC(C)C)n2)cc1Cl` [Compound E21, N^2-(3-chloro-4-methoxyphenyl)-N^4-cycloheptyl-6-isopropoxy-1,3,5-triazine-2,4-diamine], the melting point lay within 136 to 138 °C.
`CCN1CCCC1CNc1nc(Nc2ccc(OC)c(F)c2)nc(N2CCC[C@H]2COC)n1` (stereo partly shown) [Compound 61]: the “% IL6 production compare to TNF stimulation of IL6 (100%)” value in the data set on IL-6 [1] (Compds tested @ 10 uM, IL6) was 2%. In addition, the “Inhibition of TNF-induced IL6 production” value with IL-6 [1] is “++++ (between 0 and about 25% of IL6 production compared to cells that did not receive compound (or per cent of control IL6 production))”. The “Activity, inhibition of TNF-induced heparanase secretion” value in the data set with heparanase (@ 10 uM) is recorded as 40–60% inhibition @ 10 uM. Moreover, the “Relative Activity” value in the data set with heparanase is reported as “+ (0–30% inhibition)”. Besides, the “% IL6 production compare to AGE stimulation of IL6 (100%)” value with IL-6 [2] (Compds tested @ 10 uM, IL6) stood at 38%. Further, the IC50 in the data set with IL-6 [2] was found to be 6.47 µM.
`COc1ccc(Nc2nc(O)nc(NC3CCCCCC3)n2)cc1Cl` [Compound 147, 4-(3-Chloro-4-methoxy-phenylamino)-6-cycloheptylamino-1,3,5-triazin-2-ol] displayed a melting point greater than 310 °C.
`COc1ccc(Nc2nc(NN3CCCCCC3)nc(N(C)C3CCNCC3)n2)cc1Cl`: the melting point came out at 81 °C.
Take `COc1ccc(Nc2nc(Nc3ccc(OC)c(Cl)c3)nc(NC3CCCCCC3)n2)cc1Cl` [Compound 122, N,N′-Bis-(3-chloro-4-methoxy-phenyl)-N″-cycloheptyl-[1,3,5]triazine-2,4,6-triamine]: the melting point amounted to 183 °C.
